Legend:
293T cells = assay: Cellular phagocytosis of DiD-loaded lipid vesicles (nano-drugs) by 293T cells (Example II-51, Table II-29); format: cell-based; conditions: 293T cells pretreated 4 h, DiD lipid vesicles 2 h, n=3, untreated control 226.46 ± 1.26
Hela cells = assay: Cell membrane fluidity (Laurdan fluorescence recovery) in Hela cells; format: cell-based

`CCCCCC(=O)O` [Hexanoic acid] gave a Fluorescence intensity (293T cells; 2 nM) of 131.26 ± 11.25, a Fluorescence intensity (293T cells; 5 nM) of 114.00 ± 14.2 and a Fluorescence intensity (293T cells; 10 nM) of 94.34 ± 4.25. For the same compound, the Fluorescence intensity (293T cells; 50 nM) was 96.63 ± 6.32, the Fluorescence intensity (293T cells; 100 nM) was 30.71 ± 1.25 and the Fluorescence intensity (293T cells; 1 uM) was 102.07 ± 12.2. It also gave a Fluorescence intensity (293T cells; 10 uM) of 125.10 ± 12.55, a Fluorescence intensity (293T cells; 50 uM) of 288.42 ± 8.32 and a Fluorescence intensity (293T cells; 100 uM) of 325.58 ± 15.26.
`CCCCCCCCCCCC(=O)NCCCCC(N)C(=O)O` (stereo not drawn) [Lys-C12] gave a Fluorescence intensity (293T cells; 2 nM) of 175.30 ± 15.23, a Fluorescence intensity (293T cells; 5 nM) of 103.11 ± 10.33 and a Fluorescence intensity (293T cells; 10 nM) of 49.05 ± 5.26. For the same compound, the Fluorescence intensity (293T cells; 50 nM) was 24.16 ± 3.36, the Fluorescence intensity (293T cells; 100 nM) was 25.45 ± 5.22 and the Fluorescence intensity (293T cells; 1 uM) was 367.61 ± 27.11. It also gave a Fluorescence intensity (293T cells; 10 uM) of 417.28 ± 17.23, a Fluorescence intensity (293T cells; 50 uM) of 110.76 ± 8.54 and a Fluorescence intensity (293T cells; 100 uM) of 104.90 ± 6.23.
Compound `CCCCCCCCCCCCCCCCCCCCCCCC(=O)OC(C)C(N)C(=O)O` (stereo not drawn) [Threonine-C24] has a Fluorescence intensity (293T cells; 2 nM) of 39.09 ± 7.89, a Fluorescence intensity (293T cells; 5 nM) of 38.29 ± 5.26 and a Fluorescence intensity (293T cells; 10 nM) of 22.90 ± 1.22. The Fluorescence intensity (293T cells; 50 nM) was 12.84 ± 2.22, the Fluorescence intensity (293T cells; 100 nM) was 14.81 ± 1.33 and the Fluorescence intensity (293T cells; 1 uM) was 435.55 ± 15.26. For the same compound, the Fluorescence intensity (293T cells; 10 uM) was 416.78 ± 12.33, the Fluorescence intensity (293T cells; 50 uM) was 46.51 ± 5.21 and the Fluorescence intensity (293T cells; 100 uM) was 30.64 ± 5.55.
`CCCCCC/C=C\CCCCCCCC(=O)OC(C)C(N)C(=O)O` (stereo not drawn) [Threonine-cis-9-hexadecanoic acid] showed a Fluorescence intensity (293T cells; 2 nM) of 142.94, a Fluorescence intensity (293T cells; 5 nM) of 67.71 ± 5.67 and a Fluorescence intensity (293T cells; 10 nM) of 64.00 ± 4.06. For the same compound, the Fluorescence intensity (293T cells; 50 nM) was 74.71 ± 5.36, the Fluorescence intensity (293T cells; 100 nM) was 56.71 ± 6.74 and the Fluorescence intensity (293T cells; 1 uM) was 153.25 ± 13.25. For the same compound, the Fluorescence intensity (293T cells; 10 uM) was 126.64 ± 11.02, the Fluorescence intensity (293T cells; 50 uM) was 37.23 ± 2.35 and the Fluorescence intensity (293T cells; 100 uM) was 61.12 ± 5.21.
In the case of `CCCCCCCC/C=C\CCCCCCCC(=O)OCCOCC(OCCO)C1OCC(OCCO)C1OCCO` (stereo not drawn) [Tween-80], the Fluorescence intensity (293T cells; 2 nM) is reported as 45.04, the Fluorescence intensity (293T cells; 5 nM) is reported as 32.41 and the Fluorescence intensity (293T cells; 10 nM) is reported as 21.85. It also gave a Fluorescence intensity (293T cells; 50 nM) of 17.28, a Fluorescence intensity (293T cells; 100 nM) of 11.89 and a Fluorescence intensity (293T cells; 1 uM) of 152.11. It also gave a Fluorescence intensity (293T cells; 10 uM) of 103.58, a Fluorescence intensity (293T cells; 50 uM) of 18.48 and a Fluorescence intensity (293T cells; 100 uM) of 13.34 ± 3.24.
For `O=C(O)CCCCCCCCCC(=O)OCC(O)C1OC(=O)C(O)=C1O` (stereo not drawn) [VC-undecanedioic acid], the Fluorescence intensity (293T cells; 2 nM) was 121.02, the Fluorescence intensity (293T cells; 5 nM) was 92.26 and the Fluorescence intensity (293T cells; 10 nM) was 78.76 ± 7.89. The Fluorescence intensity (293T cells; 50 nM) was 87.57 ± 5.57, the Fluorescence intensity (293T cells; 100 nM) was 96.31 ± 6.21 and the Fluorescence intensity (293T cells; 1 uM) was 199.22 ± 19.26. The Fluorescence intensity (293T cells; 10 uM) was 217.49 ± 14.22, the Fluorescence intensity (293T cells; 50 uM) was 106.96 ± 5.64 and the Fluorescence intensity (293T cells; 100 uM) was 110.44 ± 9.87.
`CCCCCCCCC=CCCCCCCCC(=O)OCC(O)C1OC(=O)C(O)=C1O` (stereo not drawn) [Vc-oleic acid] was tested, and the “Fluorescence recovery rate %” value (Hela cells; 2 nM, 20 s) was 61.48%, the “Fluorescence recovery rate %” value (Hela cells; 2 nM, 40 s) was 62.33% and the “Fluorescence recovery rate %” value (Hela cells; 2 nM, 60 s) was 63.41%. For the same compound, the “Fluorescence recovery rate %” value (Hela cells; 2 nM, 80 s) was 64.57%, the “Fluorescence recovery rate %” value (Hela cells; 5 nM, 20 s) was 61.87% and the “Fluorescence recovery rate %” value (Hela cells; 5 nM, 40 s) was 62.99%. The “Fluorescence recovery rate %” value (Hela cells; 5 nM, 60 s) was 63.47%, the “Fluorescence recovery rate %” value (Hela cells; 5 nM, 80 s) was 63.21% and the “Fluorescence recovery rate %” value (Hela cells; 10 nM, 20 s) was 63.72%. For the same compound, the “Fluorescence recovery rate %” value (Hela cells; 10 nM, 40 s) was 63.75%, the “Fluorescence recovery rate %” value (Hela cells; 10 nM, 60 s) was 64.67% and the “Fluorescence recovery rate %” value (Hela cells; 10 nM, 80 s) was 65.92%. The “Fluorescence recovery rate %” value (Hela cells; 50 nM, 20 s) was 62.43%, the “Fluorescence recovery rate %” value (Hela cells; 50 nM, 40 s) was 62.62% and the “Fluorescence recovery rate %” value (Hela cells; 50 nM, 60 s) was 63.37%. For the same compound, the “Fluorescence recovery rate %” value (Hela cells; 50 nM, 80 s) was 64.24%, the “Fluorescence recovery rate %” value (Hela cells; 50 μM, 20 s) was 62.54% and the “Fluorescence recovery rate %” value (Hela cells; 50 μM, 40 s) was 67.11%. For the same compound, the “Fluorescence recovery rate %” value (Hela cells; 50 μM, 60 s) was 74.55%, the “Fluorescence recovery rate %” value (Hela cells; 50 μM, 80 s) was 76.57% and the “Fluorescence recovery rate %” value (Hela cells; 100 μM, 20 s) was 61.66%. For the same compound, the “Fluorescence recovery rate %” value (Hela cells; 100 μM, 40 s) was 73.65%, the “Fluorescence recovery rate %” value (Hela cells; 100 μM, 60 s) was 77.32% and the “Fluorescence recovery rate %” value (Hela cells; 100 μM, 80 s) was 78.61%.
In the case of adenosine monophosphate-linoleic acid, the “Fluorescence recovery rate %” value (Hela cells; 2 nM, 20 s) is reported as 62.11%, the “Fluorescence recovery rate %” value (Hela cells; 2 nM, 40 s) is reported as 62.98% and the “Fluorescence recovery rate %” value (Hela cells; 2 nM, 60 s) is reported as 64.26%. For the same compound, the “Fluorescence recovery rate %” value (Hela cells; 2 nM, 80 s) was 68.17%, the “Fluorescence recovery rate %” value (Hela cells; 5 nM, 20 s) was 63.44% and the “Fluorescence recovery rate %” value (Hela cells; 5 nM, 40 s) was 64.22%. The “Fluorescence recovery rate %” value (Hela cells; 5 nM, 60 s) was 65.78%, the “Fluorescence recovery rate %” value (Hela cells; 5 nM, 80 s) was 66.39% and the “Fluorescence recovery rate %” value (Hela cells; 10 nM, 20 s) was 63.22%. For the same compound, the “Fluorescence recovery rate %” value (Hela cells; 10 nM, 40 s) was 63.48%, the “Fluorescence recovery rate %” value (Hela cells; 10 nM, 60 s) was 64.42% and the “Fluorescence recovery rate %” value (Hela cells; 10 nM, 80 s) was 65.93%. For the same compound, the “Fluorescence recovery rate %” value (Hela cells; 50 nM, 20 s) was 64.25%, the “Fluorescence recovery rate %” value (Hela cells; 50 nM, 40 s) was 64.66% and the “Fluorescence recovery rate %” value (Hela cells; 50 nM, 60 s) was 65.33%. For the same compound, the “Fluorescence recovery rate %” value (Hela cells; 50 nM, 80 s) was 66.23%, the “Fluorescence recovery rate %” value (Hela cells; 50 μM, 20 s) was 64.44% and the “Fluorescence recovery rate %” value (Hela cells; 50 μM, 40 s) was 70.73%. The “Fluorescence recovery rate %” value (Hela cells; 50 μM, 60 s) was 74.64%, the “Fluorescence recovery rate %” value (Hela cells; 50 μM, 80 s) was 80.57% and the “Fluorescence recovery rate %” value (Hela cells; 100 μM, 20 s) was 63.22%. The “Fluorescence recovery rate %” value (Hela cells; 100 μM, 40 s) was 67.48%, the “Fluorescence recovery rate %” value (Hela cells; 100 μM, 60 s) was 75.42% and the “Fluorescence recovery rate %” value (Hela cells; 100 μM, 80 s) was 79.93%.

Reference: patent publication US20260166162A1, “CARBON CHAIN SUBSTANCE FOR REGULATING TRANSMEMBRANE TRANSPORT AND FLUIDITY OF CELL MEMBRANES, AND PREPARATION AND USE THEREOF” (priority 2022, published 2026)
